Experimental data published in patent US20240400555A1 (Initial Therapeutics, Inc., priority 2023, published 2024).

System: MV-4-11 cells
Test: Cell Viability Assay in MV-4-11 Cells
Assay type: cell-based
Settings: Homo sapiens, MV4-11, 72 h
How it was run: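 MV-4-11 cells at 7,000/well in IMDM with 10% FBS, exposed to compound for 72 h. Viability by CellTiter-Glo luminescence, normalized to DMSO as 100%, fitted with a four-parameter curve.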

SMILES | IC50 [nM]
CC(C)(O)C#Cc1cc2c(N(C(=O)c3ccc(-n4nnc5cccnc54)cc3F)[C@@H]3CCCNC3)nccc2s1 [Example 376, 2-fluoro-N-[2-(3-hydroxy-3-methyl-but-1-ynyl)thieno[3,2-c]pyridin-4-yl]-N-[(3R)-3-piperidyl]-4-(triazolo[4,5-b]pyridin-3-yl)benzamide] | 680

Same assay, conditions: Homo sapiens, MV4-11, 72 h, MV-4-11 cells, 72 h, Cell-Titer Glo; read-out: IC50

SMILES | IC50 [nM]
N#Cc1cc(-c2cc3c(N(C(=O)c4ccc(-n5nnc6cccnc65)cc4F)[C@@H]4CCCNC4)nccc3s2)ccn1 [Example 386, N-[2-(2-cyano-4-pyridyl)thieno[3,2-c]pyridin-4-yl]-2-fluoro-N-[(3R)-3-piperidyl]-4-(triazolo[4,5-b]pyridin-3-yl)benzamide] | 330
COc1ccc(C)c2c(N(C(=O)c3ccc(-c4cn(C)nn4)cc3)[C@@H]3CCCNC3)nccc12 [Example 872, N-(5-methoxy-8-methyl-1-isoquinolyl)-4-(1-methyltriazol-4-yl)-N-[(3R)-3-piperidyl]benzamide] | 2100
O=C(c1ccc(-n2nnc3cccnc32)cc1F)N(c1nccc2sc(-c3ccncn3)cc12)[C@@H]1CCCNC1 [Example 456, 2-fluoro-N-[(3R)-3-piperidyl]-N-(2-pyrimidin-4-ylthieno[3,2-c]pyridin-4-yl)-4-(triazolo[4,5-b]pyridin-3-yl)benzamide] | 380
O=C(c1ccc(-c2cccnn2)cn1)N(c1nccc2cc(Cl)ccc12)[C@@H]1CCCNC1 [Example 806, N-(6-chloro-1-isoquinolyl)-N-[(3R)-3-piperidyl]-5-pyridazin-3-yl-pyridine-2-carboxamide] | 680
COCCn1cc(-c2ccc(C(=O)N(c3nccc4cc(F)cc(C)c34)[C@@H]3CCCNC3)cn2)nn1 [Example 920, N-(6-fluoro-8-methyl-1-isoquinolyl)-6-[1-(2-methoxyethyl)triazol-4-yl]-N-[(3R)-3-piperidyl]pyridine-3-carboxamide] | 84
O=C(c1ccc(-n2nnc3cccnc32)cc1F)N(c1nccc2sc(Cc3ccccc3)cc12)[C@@H]1CCCNC1 [Example 466, N-(2-benzylthieno[3,2-c]pyridin-4-yl)-2-fluoro-N-[(3R)-3-piperidyl]-4-(triazolo[4,5-b]pyridin-3-yl)benzamide] | 440
NC(=O)c1cc(-c2cc3c(N(C(=O)c4ccc(-n5nnc6cccnc65)cc4F)[C@@H]4CCCNC4)nccc3s2)cs1 [Example 568, 4-[4-[[2-fluoro-4-(triazolo[4,5-b]pyridin-3-yl)benzoyl]-[(3R)-3-piperidyl]amino]thieno[3,2-c]pyridin-2-yl]thiophene-2-carboxamide] | 89
Cc1cccc2ccnc(N(C(=O)c3ccc(-c4ccc[nH]c4=O)cc3)[C@@H]3CCCNC3)c12 [Example 332, (R)—N-(8-methylisoquinolin-1-yl)-4-(2-oxo-1,2-dihydropyridin-3-yl)-N-(piperidin-3-yl)benzamide] | 2700
Cn1cc(-c2ccc(C(=O)N(c3nccc4sc(-c5ccc(-c6cc[nH]n6)cc5)cc34)[C@@H]3CCCNC3)c(F)c2)nn1 [Example 529, 2-fluoro-4-(1-methyltriazol-4-yl)-N-[(3R)-3-piperidyl]-N-[2-[4-(1H-pyrazol-3-yl)phenyl]thieno [3,2-c]pyridin-4-yl] benzamide] | 140
CNC(=O)C#Cc1cc2c(N(C(=O)c3ccc(-n4nnc5cccnc54)cc3F)[C@@H]3CCCNC3)nccc2s1 [Example 549, 2-fluoro-N-[2-[3-(methylamino)-3-oxo-prop-1-ynyl]thieno[3,2-c]pyridin-4-yl]-N-[(3R)-3-piperidyl]-4-(triazolo [4,5-b]pyridin-3-yl)benzamide] | 1500
Cn1cc(-c2ccc(C(=O)N(c3nccc4sc(-c5ccc(S(=O)(=O)NCCN)cc5)cc34)[C@@H]3CCCNC3)c(F)c2)nn1 [Example 536, N-[2-[4-(2-aminoethylsulfamoyl)phenyl]thieno[3,2-c]pyridin-4-yl]-2-fluoro-4-(1-methyltriazol-4-yl)-N-[(3R)-3-piperidyl] benzamide] | > 10000
C#Cc1csc2ccnc(N(C(=O)c3ccc(-c4cn(C)nn4)cc3F)[C@@H]3CCCNC3)c12 [Example 674, (R)—N-(3-ethynylthieno[3,2-c]pyridin-4-yl)-2-fluoro-4-(1-methyl-1H-1,2,3-triazol-4-yl)-N-(piperidin-3-yl)benzamide] | 100
O=C(c1ccc(-c2cnn3cccnc23)cc1)N(c1nccc2ccccc12)[C@@H]1CCCNC1 [Example 302, (R)—N-(isoquinolin-1-yl)-N-(piperidin-3-yl)-4-(pyrazolo[1,5-a]pyrimidin-3-yl)benzamide] | 480
COCc1nnc(-c2ccc(C(=O)N(c3nccc4cc(F)cc(C)c34)[C@@H]3CCCNC3)c(F)c2)s1 [Example 853, 2-fluoro-N-(6-fluoro-8-methyl-1-isoquinolyl)-4-[5-(methoxymethyl)-1,3,4-thiadiazol-2-yl]-N-[(3R)-3-piperidyl]benzamide] | 55
Cc1cc2c(N(C(=O)c3ccc(-n4nnc5cccnc54)cc3F)[C@@H]3CCCNC3)nccc2s1 [Example 739, (R)-4-(3H-[1,2,3]triazolo[4,5-b]pyridin-3-yl)-2-fluoro-N-(2-methylthieno[3,2-c]pyridin-4-yl)-N-(piperidin-3-yl)benzamide] | 650
Cc1nnc(-c2ccc(C(=O)N(c3nccc4scc(C)c34)[C@@H]3CCCNC3)nc2)s1 [Example 810, (R)-5-(5-methyl-1,3,4-thiadiazol-2-yl)-N-(3-methylthieno[3,2-c]pyridin-4-yl)-N-(piperidin-3-yl)picolinamide] | 170
Cc1sc2ccnc(N(C(=O)c3ccc(-c4cn(C)nn4)cc3F)[C@@H]3CCCNC3)c2c1C [Example 831, (R)—N-(2,3-dimethylthieno[3,2-c]pyridin-4-yl)-2-fluoro-4-(1-methyl-1H-1,2,3-triazol-4-yl)-N-(piperidin-3-yl)benzamide] | 440

Further lines, results first:

IC50 [nM] | SMILES
29 | CCn1cc(-c2ccc(C(=O)N(c3nccc4cc(OC)cc(C)c34)[C@@H]3CCCNC3)c(F)c2)nn1 [Example 863, 4-(1-ethyltriazol-4-yl)-2-fluoro-N-(6-methoxy-8-methyl-1-isoquinolyl)-N-[(3R)-3-piperidyl] benzamide]
92 | Cc1cccc2ccnc(N(C(=O)c3ccc(Nc4nccc(/C=C/CO)n4)cc3F)[C@@H]3CCCNC3)c12 [Example 748, (R,E)-2-fluoro-4-((4-(3-hydroxyprop-1-en-1-yl)pyrimidin-2-yl)amino)-N-(8-methylisoquinolin-1-yl)-N-(piperidin-3-yl)benzamide]
34 | Cc1cccc2ccnc(N(C(=O)c3ccc(Nc4nccc(N5[C@H](C)COC[C@@H]5C)n4)cc3F)[C@@H]3CCCNC3)c12 [Example 940, 4-((4-((3R,5S)-3,5-dimethylmorpholino)pyrimidin-2-yl)amino)-2-fluoro-N-(8-methylisoquinolin-1-yl)-N—((R)-piperidin-3-yl)benzamide]
290 | Cc1cccc2ccnc(N(C(=O)c3ccc(Nc4nccc(C(N)=O)n4)cc3F)[C@@H]3CCCNC3)c12 [Example 402, (R)-2-((3-fluoro-4-((8-methylisoquinolin-1-yl)(piperidin-3-yl)carbamoyl)phenyl)amino)pyrimidine-4-carboxamide]
67 | Cc1cccc2ccnc(N(C(=O)c3ccc(-c4cnn(C)c4)c(-c4cnn(C)c4)c3)[C@@H]3CCCNC3)c12 [Example 326, (R)-3,4-bis(1-methyl-1H-pyrazol-4-yl)-N-(8-methylisoquinolin-1-yl)-N-(piperidin-3-yl) benzamide]
970 | Cc1nnc(-c2ccc(C(=O)N(c3nccc4cc(Cl)ccc34)[C@@H]3CCCNC3)c(F)c2)o1 [Example 788, (R)—N-(6-chloroisoquinolin-1-yl)-2-fluoro-4-(5-methyl-1,3,4-oxadiazol-2-yl)-N-(piperidin-3-yl)benzamide]
120 | CCc1nnc(-c2ccc(C(=O)N(c3nccc4cc(F)cc(C)c34)[C@@H]3CCCNC3)c(F)c2)s1 [Example 832, (R)-4-(5-ethyl-1,3,4-thiadiazol-2-yl)-2-fluoro-N-(6-fluoro-8-methylisoquinolin-1-yl)-N-(piperidin-3-yl)benzamide]
41 | [2H]C([2H])([2H])Oc1cc(C)c2c(N(C(=O)c3ccc(-c4cn(CC)nn4)cc3F)[C@@H]3CCCNC3)nccc2c1 [Example 889, 4-(1-ethyltriazol-4-yl)-2-fluoro-N-[8-methyl-6-(trideuteriomethoxy)-1-isoquinolyl]-N-[(3R)-3-piperidyl]benzamide]
48 | COc1cc(C)c2c(N(C(=O)c3ccc(-c4nnc(C)s4)cc3F)[C@@H]3CCCNC3)nccc2c1 [Example 860, 2-fluoro-N-(6-methoxy-8-methyl-1-isoquinolyl)-4-(5-methyl-1,3,4-thiadiazol-2-yl)-N-[(3R)-3-piperidyl]benzamide]
32 | Cc1cccc2ccnc(N(C(=O)c3ccc(Nc4nccc(N5CCC[C@@H]5CO)n4)cc3F)[C@@H]3CCCNC3)c12 [Example 966, 2-fluoro-4-({4-[(2R)-2-(hydroxymethyl)pyrrolidin-1-yl]pyrimidin-2-yl}amino)-N-(8-methylisoquinolin-1-yl)-N-[(3R)-piperidin-3-yl]benzamide]
39 | Cc1cccc2ccnc(N(C(=O)c3ccc(Nc4nccc(N5CCOC[C@H]5C(C)C)n4)cc3F)[C@@H]3CCCNC3)c12 [Example 941, 2-fluoro-4-((4-((R)-3-isopropylmorpholino)pyrimidin-2-yl)amino)-N-(8-methylisoquinolin-1-yl)-N—((R)-piperidin-3-yl)benzamide]
430 | Cc1cc(Cl)cc2ccnc(N(C(=O)c3ccc(-c4cnn(C)c4C)cc3F)[C@@H]3CCCNC3)c12 [Example 814, (R)—N-(6-chloro-8-methylisoquinolin-1-yl)-4-(1,5-dimethyl-1H-pyrazol-4-yl)-2-fluoro-N-(piperidin-3-yl)benzamide]
34 | COC1CCN(c2ccnc(Nc3ccc(C(=O)N(c4nccc5cccc(C)c45)[C@@H]4CCCNC4)c(F)c3)n2)CC1 [Example 716, (R)-2-fluoro-4-((4-(4-methoxypiperidin-1-yl)pyrimidin-2-yl)amino)-N-(8-methylisoquinolin-1-yl)-N-(piperidin-3-yl)benzamide]
